Data taken from paper PMC13352219, “Analysis of glutamine synthetase target‐site mutations and their role in endowing glufosinate‐ammonium resistance” (Pest Management Science, 2026).
Where two headings read alike, the source gives them in different places.

Experiments:
[1] = system: Amaranthus palmeri cytosolic GS1.1 E131K; test: GS enzyme inhibition assay, GS1.1 E131K; format: biochemical
Protocol: (§1) GS activity was determined spectrophotometrically following the Sigma‐Aldrich enzymatic assay protocol. The reaction couples the ATP‐dependent conversion of L‐glutamate and ammonium to L‐glutamine with pyruvate kinase (PK) and L‐lactate dehydrogenase (LDH), such that oxidation of β‐NADH to β‐NAD^+ can be monitored at 340 nm. Recombinant GS from A. palmeri was expressed in E. coli, purified by affinity chromatography, and quantified by the Bradford method using bovine serum albumin as standard. […] Reaction mixtures were equilibrated to 37°C and initiated by the addition of enzyme, and the decrease in absorbance at 340 nm was recorded for 5–10 min; only the linear portion of the curve was used for activity calculations. […] Activity was calculated using an extinction coefficient for NADH of 6.22 mM^−1 cm^−1 and expressed as units per mg protein, where one unit corresponds to the formation of 1 μmol of L‐glutamine in […] at pH 7.1 and 37 °C. […] Percent inhibition was calculated relative to untreated (positive) and no‐enzyme (negative) controls. […] Resistance factors were calculated by dividing the IC₅₀ of each mutant variant by that of wild‐type GS.

[2] = system: Amaranthus palmeri cytosolic GS1.1 R34A; test: GS enzyme inhibition assay, GS1.1 R34A; format: biochemical
Protocol: as §1

[3] = system: Arabidopsis thaliana plants expressing Amaranthus palmeri GS2.2 G255D; test: Postemergence GFA spray on transgenic Arabidopsis expressing GS2.2 G255D; format: in vivo; conditions: 100, 500 and 1000 g ha^−1 postemergence, listed as GFA
Excerpt: Mutant GS variants G2.2 G255D from A. palmeri and G254D from Arabidopsis were cloned into the RTP6557 transformation vector, which was subsequently introduced into Agrobacterium tumefaciens strain C58C1pMP90. The construct also carried an acetolactate synthase (ALS) herbicide‐resistance gene as a selectable marker, ensuring that Arabidopsis seedlings tested for resistance to GFA herbicide expressed the transgene.
Arabidopsis plants carrying immature floral buds were transformed by the floral‐dip method, immersing inflorescences for 10 s in the bacterial suspension supplemented with Silwet‐L77 at 0.05% v/v. After dipping, plants were maintained overnight under high humidity and low light, then transferred to long‐day conditions until maturity. Once siliques had yellowed, seeds were harvested into paper bags. T₁ seeds were collected, placed into Falcon tubes, and stored at 4 °C.
After ≥14 d of cold storage, T₁ seeds were sown and stratified as previously described. Transgenic plants were confirmed by PCR detection of the AHAS resistance marker gene. […]
Herbicide treatments were applied at the 10‐leaf stage using a spray chamber calibrated to deliver 375 L ha^−1 of spray solution. […] Herbicide efficacy was visually evaluated 7 d after application.

[4] = system: Amaranthus palmeri cytosolic GS1.1 G160T; test: GS enzyme inhibition assay, GS1.1 G160T; format: biochemical
Protocol: as §1

[5] = system: Amaranthus palmeri cytosolic GS1.1 G155F; test: GS enzyme inhibition assay, GS1.1 G155F; format: biochemical
Protocol: as §1

[6] = system: Amaranthus palmeri cytosolic GS1.1 E131Q; test: GS enzyme inhibition assay, GS1.1 E131Q; format: biochemical
Protocol: as §1

[7] = system: Amaranthus palmeri cytosolic GS1.1 R291S; test: GS enzyme inhibition assay, GS1.1 R291S; format: biochemical
Protocol: as §1

[8] = system: Amaranthus palmeri cytosolic GS1.1 E131V; test: GS enzyme inhibition assay, GS1.1 E131V; format: biochemical
Protocol: as §1

[9] = system: Amaranthus palmeri cytosolic GS1.1 G162N; test: GS enzyme inhibition assay, GS1.1 G162N; format: biochemical
Protocol: as §1

[10] = system: Amaranthus palmeri cytosolic GS1.1 E297A; test: GS enzyme inhibition assay, GS1.1 E297A; format: biochemical
Protocol: as §1

[11] = system: Amaranthus palmeri cytosolic GS1.1 G245S; test: GS enzyme inhibition assay, GS1.1 G245S; format: biochemical
Protocol: as §1

[12] = system: Amaranthus palmeri cytosolic GS1.1 E131D; test: GS enzyme inhibition assay, GS1.1 E131D; format: biochemical
Protocol: as §1

[13] = system: Amaranthus palmeri cytosolic GS1.1 R291P; test: GS enzyme inhibition assay, GS1.1 R291P; format: biochemical
Protocol: as §1

[14] = system: Amaranthus palmeri cytosolic GS1.1 R316E; test: GS enzyme inhibition assay, GS1.1 R316E; format: biochemical
Protocol: as §1

[15] = system: Amaranthus palmeri cytosolic GS1.1 WT; test: GS enzyme inhibition assay, GS1.1 WT; format: biochemical; conditions: for IC50: read-out: Glufosinate‐ammonium IC50
Protocol: GS activity was determined spectrophotometrically following the Sigma‐Aldrich enzymatic assay protocol. The reaction couples the ATP‐dependent conversion of L‐glutamate and ammonium to L‐glutamine with pyruvate kinase (PK) and L‐lactate dehydrogenase (LDH), such that oxidation of β‐NADH to β‐NAD^+ can be monitored at 340 nm. Recombinant GS from A. palmeri was expressed in E. coli, purified by affinity chromatography, and quantified by the Bradford method using bovine serum albumin as standard. Assays were conducted at 37 °C in 3 mL total volume containing 34.1 mM imidazole (pH 7.1), 102 mM sodium L‐glutamate, 8.5 mM ATP, 1.1 mM phosphoenolpyruvate, 60 mM MgCl₂, 18.9 mM KCl, 45 mM NH₄Cl, 0.25 mM β‐NADH, 28 U PK, 40 U LDH, and 0.4–0.8 U recombinant GS. Reaction mixtures were equilibrated to 37°C and initiated by the addition of enzyme, and the decrease in absorbance at 340 nm was recorded for 5–10 min; only the linear portion of the curve was used for activity calculations. For inhibition assays, GFA was added directly to the reaction mixture to final concentrations ranging from 10^−8 M to 10^−2 M, using 2.5‐fold serial dilutions, with a no‐inhibitor control included in each run. Activity was calculated using an extinction coefficient for NADH of 6.22 mM^−1 cm^−1 and expressed as units per mg protein, where one unit corresponds to the formation of 1 μmol of L‐glutamine in […] at pH 7.1 and 37 °C. Background activity was corrected by including blank assays without GS. Percent inhibition was calculated relative to untreated (positive) and no‐enzyme (negative) controls. Assays were conducted in triplicates. IC₅₀ values (concentration of inhibitor reducing GS activity by 50%) were estimated by nonlinear regression (three‐ or four‐parameter log‐logistic models). Resistance factors were calculated by dividing the IC₅₀ of each mutant variant by that of wild‐type GS.

[16] = system: Amaranthus palmeri cytosolic GS1.1 R291L; test: GS enzyme inhibition assay, GS1.1 R291L; format: biochemical
Protocol: as §1

[17] = system: Amaranthus palmeri cytosolic GS1.1 S59N; test: GS enzyme inhibition assay, GS1.1 S59N; format: biochemical
Protocol: as §1

[18] = system: Amaranthus palmeri cytosolic GS1.1 R311Q; test: GS enzyme inhibition assay, GS1.1 R311Q; format: biochemical
Protocol: as §1

[19] = system: Amaranthus palmeri cytosolic GS1.1 R291C; test: GS enzyme inhibition assay, GS1.1 R291C; format: biochemical
Protocol: as §1

[20] = read-out: Glufosinate‐ammonium IC50

## CP(=O)(O)CCC(N)C(=O)O (stereo not drawn) [Glufosinate‐ammonium]
[1]; 10 000 μM
  Glufosinate‐ammonium % Inhibition at saturation 10 000 μM: 0%
[1]; [20]
  IC50: > 10000 µM
[2]; IC50 variant / IC50 WT
  Resistance index (RI): 8.4
[2]; [20]
  IC50: 182 µM
[3]
  tolerance to GFA (visual injury): chlorosis and necrosis comparable to wild‐type controls
[4]; IC50 variant / IC50 WT
  Resistance index (RI): 18.7
[4]; [20]
  IC50: 405 µM
[5]; IC50 variant / IC50 WT
  Resistance index (RI): 11.7
[5]; [20]
  IC50: 254 µM
[6]; 10 000 μM
  Glufosinate‐ammonium % Inhibition at saturation 10 000 μM: 6.5%
[6]; [20]
  IC50: > 10000 µM
[7]; 10 000 μM
  Glufosinate‐ammonium % Inhibition at saturation 10 000 μM: 0.3%
[7]; [20]
  IC50: > 10000 µM
[8]; 10 000 μM
  Glufosinate‐ammonium % Inhibition at saturation 10 000 μM: 6.6%
[8]; [20]
  IC50: > 10000 µM
[9]; IC50 variant / IC50 WT
  Resistance index (RI): 22.6
[9]; [20]
  IC50: 489 µM
[10]; IC50 variant / IC50 WT
  Resistance index (RI): 0.3
[10]; [20]
  IC50: 6.9 µM
[11]; 10 000 μM
  Glufosinate‐ammonium % Inhibition at saturation 10 000 μM: 9%
[11]; [20]
  IC50: > 10000 µM
[12]; 10 000 μM
  Glufosinate‐ammonium % Inhibition at saturation 10 000 μM: 48%
[12]; [20]
  IC50: > 10000 µM
[13]; 10 000 μM
  Glufosinate‐ammonium % Inhibition at saturation 10 000 μM: 0%
[13]; [20]
  IC50: > 10000 µM
[14]; IC50 variant / IC50 WT
  Resistance index (RI): 9.1
[14]; [20]
  IC50: 197 µM
[15]; 10 000 μM
  Glufosinate‐ammonium % Inhibition at saturation 10 000 μM: 100%
[15]; IC50 variant / IC50 WT
  Resistance index (RI): 1
[15]; Table 2 panel
  IC50: 22.5 µM
[15]; Table 3 panel
  IC50: 21.7 µM
[16]; 10 000 μM
  Glufosinate‐ammonium % Inhibition at saturation 10 000 μM: 0%
[16]; [20]
  IC50: > 10000 µM
[17]; IC50 variant / IC50 WT
  Resistance index (RI): 1.8
[17]; [20]
  IC50: 39.5 µM
[18]; 10 000 μM
  Glufosinate‐ammonium % Inhibition at saturation 10 000 μM: 1.9%
[18]; [20]
  IC50: > 10000 µM
[19]; 10 000 μM
  Glufosinate‐ammonium % Inhibition at saturation 10 000 μM: 0%
[19]; [20]
  IC50: > 10000 µM
